# Measurements as given in patent US8951747B2, “Method for modulating activity of T lymphocytes” (Ludwig Institute for Cancer Research, priority 2007, dated 2015).
# Experiments:
# Type in all cases: cell-based, human
# CD8TL clone A10 [1] = assay: FRET analysis of TCR-CD8 proximity on tetramer^low CD8TLs; settings: for FRET between TCR and CD8 (TCR-CD8 proximity): tetramer^low cells, day 4 after stimulation, incubated 2 hours, o-phenantholin 30 μM, lactose 100 mM, LacNAc 1 mM, sucrose 100 nM, vs untreated cells
# Procedure: (§1) To elaborate, samples of 2×10^5 cells were washed in Hank's medium that had been supplemented with 1% human serum, and were then resuspended, in 50 μl of medium, which contained either an anti-TCRβ-PE antibody (the “donor” antibody), or an anti-CD8α-Alexa647 antibody (the “acceptor” antibody), or both. The former was diluted at 1/20 and the latter, at 1/300.
# (§2) Samples were incubated for 30 minutes at 4° C., washed, and fixed with paraformaldehyde (2% w/v in PBS). Analysis was carried out on a FACS system, and transfer of fluorescence was calculated as FRET units, in accordance with Doucey, et al., J. Biol. Chem., 278:3257-3264 (2003), incorporated by reference. A FRET unit is defined as: [E3both−E3none]−[(E3A647−E3none)×(E2both/E2A647)]−[(E3PE−3none)×(E1both/E1PE)]
# E1 is the fluorescence detected at 580 nm, following excitation at 488 nm. E2 is fluorescence detected at 670 nm, following excitation at 630 nm, and E3 is fluorescence detected at 670 nm following excitation at 488 nm.
# After the molecules are excited at the donor level, transfer of energy from donor to acceptor happens only if the distance between two molecules is less than 10 nm, with energy transfer being measured by emission at the acceptor wavelength.
# (§3) To test this, cells of CD8TL clone A10 were collected, on days 0 and 4, after stimulation with HLA-A1^+, MAGE-3^+ tumor cells. Mean fluorescence indices were determined for both the high and low staining populations, on days 0 and 4. […] staining was carried out, as described supra, with cells that were either incubated with no test substance, or which had been incubated for 2 hours, on day 4, with one of o-phenantholin (30 μM), a known Zn chelator, lactose, (100 mM), LacNAc (1 mM), or sucrose (100 nM). The rationale behind the incubation with lactose, LacNAc, and sucrose is explained in Example 11. A final sample was incubated with swainsonin (0.5 μM) on day 0, before the cells were stimulated.
# (§4) The cells were then washed, and analyzed for all of tetramer staining, proximity of the molecules via FRET, and IFN-γ production following antigenic stimulation.
# CD8TL clone A10 [2] = assay: HLA-peptide tetramer staining of tetramer^low CD8TLs; settings: for tetramer staining (ability to bind tetramers): tetramer^low cells, day 4 after stimulation, incubated 2 hours, o-phenantholin 30 μM, lactose 100 mM, LacNAc 1 mM, sucrose 100 nM, vs untreated cells
# Procedure: Fourteen days after the stimulation, the CD8TLs were then stained with complexes of HLA-A0101 folded with SEQ ID NO: 1, prepared as described by Coulie, et al., Proc. Natl. Acad. Sci. USA, 98:10290-10295 (2001), incorporated by reference. The complexes were biotinylated and then labeled with phycoerythrin (“PE”), using known methods. Staining was accomplished by incubating CD8TLs, for 10 minutes, at room temperature, with 5 nM of tetramer, and then washing.
# as §3, §4
# CD8TL clone A10 [3] = assay: IFN-γ production following antigenic stimulation; settings: for ability to release IFN-γ upon antigenic stimulation: tetramer^low cells, day 4 after stimulation, incubated 2 hours, o-phenantholin 30 μM, lactose 100 mM, LacNAc 1 mM, sucrose 100 nM, vs untreated cells
# Procedure: In addition to the experiments set forth, supra the effector capability of the T lymphocytes was tested, at various points during the period in which they were stimulated. Stimulation conditions are set forth in Example 1, supra. The effector activity was determined by contacting samples of 5000 CD8TLs with 2×10^5 HLA-A1 EBV-B cells which had been incubated for one hour with 1 μM of the peptide of SEQ ID NO: 1 at 37° C., and co-culturing the mixed sample, overnight. The amounts of IFN-γ and IL-2 resulting from the activation of the T cells were measured in the supernatants of the co-cultured cells via ELISAs.
# as §3, §4
# [4] = tested on: kidney infiltrating T cells isolated from the kidney allograft; assay: IFN-γ production by functional kidney infiltrating T cells; settings: LacNAc treatment; stimulation with allogeneic EBV-B cells or anti-CD3/CD28 beads
# Text: A standard depletion strategy was used to isolate CD8^+ T cells from a breast carcinoma metastasis, ovarian carcinoma ascites, blood, and a kidney allograft that had been resected during a chronic rejection process.
# As was noted supra, there was clear TCR CD8 FRET on kidney infiltrating T cells isolated from the kidney allograft. These T cells released IFN-γ upon stimulation with allogeneic EBV-B cells, or beads coated with anti-CD3/CD28 antibodies.
# Different treatments were not, however, unspecific.
# [5] = tested on: CD8+ TILs from gastric carcinoma ascites; assay: TCR CD8 FRET on CD8+ TILs; settings: 1 mM LacNAc, 37° C., 5 hours of treatment; compared with tetramer^high CD8TL A10
# Procedure: as §1, §2
# These experiments tested the impact of N-acetyllactosamine (LacNAc) on colocalization. Gastric carcinoma ascites were screened for CD8^+ TILs, after they had been incubated for various time periods at 37° C., with 1 mM of LacNAc, and washed. As a control, the line CD8TL A10 was used, two weeks after its last antigenic stimulation.
# tetramer^low CD8TLs = assay: IFN-γ release by tetramer^low CD8TLs treated with galectin-3 binders or neuraminidase; settings: CD8TLs collected 3-4 days after stimulation
# Procedure: To test this, tetramer^low CD8TLs, collected 3-4 days after stimulation, as described supra, were treated with LacNAc, a known competitive binder of galectin-3. Release of IFN-γ was restored.
# These experiments were repeated testing two other galectin-3 binders, “tri-LacNAc,” and an antibody against the N-terminus of galectin-3.
# The experiments described herein, using neuraminidase, were carried out on human CD8TLs, and the results parallel those observed by Kao, et al., Immunol., 17:1607-1617 (2005), on murine cells. It is hypothesized that a sialic acid residue may be present, near the LacNAc motif of galectin-binding proteins, and act to increase galectin-3 affinity.
# [6] = tested on: TILs from ovarian cancer ascites; assay: IFN-γ response of anergic TILs to stimulation; settings: overnight incubation with 1 mM LacNAc
# Procedure: It was confirmed by the fact that, notwithstanding overnight stimulation with a mixed population of tumor cells, B cells, and macrophages collected from the same ascites, or with allogenic EBV-β cells. IFNγ was not produced.
# When these anergic TILs were incubated overnight with 1 mM LacNAc, their IFN-γ response increased more than 10 fold.
# [7] = swainsonin 0.5 μM added on day 0 before restimulation, read at day 4
Compound,FRET between TCR and CD8 (TCR-CD8 proximity) (CD8TL clone A10 [1]),tetramer staining (ability to bind tetramers) (CD8TL clone A10 [2]),ability to release IFN-γ upon antigenic stimulation (CD8TL clone A10 [3]),IFN-γ production of kidney infiltrating T cells [4],TCR CD8 FRET on TILs [5],release of IFN-γ by tetramer^low CD8TLs (tetramer^low CD8TLs),increase of IFN-γ response to antigen stimulation [6],FRET efficiency (TCR-CD8) (CD8TL clone A10 [1]; [7]),tetramer staining (CD8TL clone A10 [2]; [7]),ability to release IFN-γ when restimulated (CD8TL clone A10 [3]; swainsonin 0.5 μM added on day 0 before restimulation)
"OC[C@H]1O[C@@](CO)(O[C@H]2O[C@H](CO)[C@@H](O)[C@H](O)[C@H]2O)[C@@H](O)[C@@H]1O [Sucrose, sucrose]",no effect,no effect,no effect,–,–,–,–,–,–,–
OC[C@H]1O[C@@H](O[C@H]2[C@H](O)[C@@H](O)C(O)O[C@@H]2CO)[C@H](O)[C@@H](O)[C@H]1O (stereo partly shown) [lactose],higher FRET efficiencies,higher degrees of tetramer staining,higher ability to release IFN-γ,–,–,–,–,–,–,–
"CC(=O)N[C@H]1C(O)O[C@H](CO)[C@@H](O[C@@H]2O[C@H](CO)[C@H](O)[C@H](O)[C@H]2O)[C@@H]1O (stereo partly shown) [LacNAc, N-acetyl lactosamine]",higher FRET efficiencies,higher degrees of tetramer staining,higher ability to release IFN-γ,did not result in increased IFN-γ production,recovered the same level of TCR CD8 FRET,restored,more than 10 fold,–,–,–
c1cnc2c(c1)ccc1cccnc12 [o-phenantholin],regained FRET exchanges between the 2 molecules,regained,regained,–,–,–,–,–,–,–
"O[C@H]1[C@H]2[C@H](O)CCCN2C[C@H]1O [Swainsonin, swainsonin]",–,–,–,–,–,–,–,higher FRET efficiency,higher tetramer staining,higher ability to release IFN-γ
